Results reported in patent US20180362993A1, “ELICITOR-DERIVED PEPTIDES AND USE THEREOF” (Plant Health Care, Inc., priority 2017, published 2018).
Marks after values point to notes of the source that are not given here.

Columns and labels:
Assay type in all cases: in vivo
corn = experiment: Drought resistance in corn (foliar spray); details: for Dry Weight Increase / Fresh Weight Increase: corn, vs untreated control
Experimental: The effectiveness of peptide treatment in reducing drought stress was assessed in corn. 3.5 inch pots were filled with Sunshine #1 soil (SunGro Horticulture), fertilized with a 20-10-20 mixture. The soil was soaked and drained overnight. Seeds (either corn or soy, manually inspected to ensure uniform seed size) were planted at a depth of 1 inch for germination. Plants were grown in a greenhouse under 16 hour light days at >70° F. and 8 hour dark nights at >65° F. Prior to drought conditions, the plants were well-watered.
When the plants reached the V1 stage, plants were culled to achieve a uniform height (abnormally large and small plants were removed). Plants were then randomly assigned to control (spray without peptide) or treatment (spray with peptide) groups and heights were measured. Peptide was made up in a solution of 0.2 μg/ml or 2μg/ml in distilled water+0.01% Tween-20, and applied as a fine mist from a spray bottle until the solution drips from the leaves. After the peptide solutions were dried, the plants were again randomized in a randomized complete block design. Drought stress was initiated after the peptide treatment. This was caused by maintaining the water level at 25-50% of the maximum capacity for water (capacity was decided as the weight of the pot filled with saturated soil minus the weight of the filled pot prior to adding water).
The drought test phase ended after 2-3 weeks. At that time, the plant height was again measured and the growth rate was calculated as the difference between this and the previously-recorded height. The above-ground part portions of the plants were harvested and weighed to obtain fresh weight. The above-ground portion was also dried in an oven at 70° C. for 72 hours to obtain dry weight. All calculations were compared with matched untreated control plants.
The drought testing procedure was carried out in corn using a treatment of P12, P13-10, P13-11, P13-12, P13-14, P13-4, and P13-15 (SEQ ID NOs: 5, 16, 17, 18, 20, 10, and 21). Asterisks indicate statistical significance by P-value (*: P<0.1 and **: P<0.05)

[1] = tested on: tobacco mosaic virus (TMV); experiment: Induction of resistance to tobacco mosaic virus in tobacco (foliar spray); details: 20 μg/ml spray; for Effectiveness Covered (% decline in TMV lesions vs UTC): covered leaf (systemic response); for Effectiveness Uncovered (% decline in TMV lesions vs UTC): uncovered leaf (local response)
Experimental: Peptides were tested for the induction of resistance to tobacco mosaic virus (TMV) in tobacco. Briefly, three tobacco plants at 6-8 weeks old were selected per group (samples and controls). The bottom-most leaf of the plant was covered and the plant was sprayed with a solution of water (untreated control—UTC), peptide, or Proact (positive control). The spray was applied until the leaves were fully wetted, indicated by liquid dripping from the leaves. The plants were then allowed to dry and the leaf covering was removed.
Three days post-treatment, the previously-covered leaf and a leaf on the opposite side of the plant were then lightly dusted with diatomaceous earth and 20 ul of a 1.7 μg/ml solution of purified tobacco mosaic virus was applied. The TMV solution was then spread across the leaf surface by lightly rubbing solution and the diatomaceous earth across the surface of the leaves. Two minutes after inoculation, the diatomaceous earth was rinsed off the leaves with water. 3 days after TMV inoculation, the leaves were scored based on the number of TMV lesions observed. The leaf was also scored for signs of the hypersensitive response, including yellowing and wilting of the affected leaves.
Effectiveness described in Table 5 refers to the % decline in TMV lesions on treated vs UTC plants. A reduction of TMV on covered leaves indicates a systemic immune response in the plant while reduction on uncovered leaves indicates a local response. Asterisks indicate that the P-value derived from a T-test was <0.05.

soy = experiment: Drought resistance in seed-treated soy; details: vs mock
Experimental: The effectiveness of peptide treatment in reducing drought stress was assessed in soy using a seed treatment strategy. This strategy largely mirrors examples 3 and 4.
Seeds were first sieved using mesh screens to a uniform size (14-17 mesh). The seeds were then coated with a mixture of peptide and Unicoat™ seed coat polymer in a Hege 11 Liquid Seed Treater (Wintersteiger) according to manufacturer recommendations. […]
3.5 inch pots were filled (approximately 0.2 L per pot) with Sunshine #1 mix (SunGro Horticulture), fertilized with 14-14-14 N,P,K Osmocote (Everris), and mixed for 20 minutes using a soil mixer M-5. Seeds were planted at a depth of 0.5 inch for germination. The pots were immediately irrigated by submergence then drained after about an hour. For each treatment group, 24 replicate seeds were planted. Plants were grown in a greenhouse under 16 hour light days at ˜75° F. and 8 hour dark nights at ˜65° F. Prior to drought conditions, the plants were well-watered.
Seven days after germination the heights of the plants were measured. This was determined as the distance between the soil surface and the shoot apical meristems (buds). The plants were randomized using a complete block design and subjected to a cyclic drought stress. Drought stress was imposed by withholding water for 3-4 days until the majority of plants were under medium to severe water stress. The severity of the stress was determined by the weight of the pot and visual determination of loss of turgor in the leaves (drooping). Once drought stress was attained, the pots were watered to full saturation. Full Saturation (100% pot capacity) is defined as the weight of the pot filled with water-saturated soil minus the weight of the filled pot prior to adding water. Drought stress was imposed for a total of 18 days.
At the end of the experiment (18 days after initiation of drought stress), the plant above the soil surface was then harvested for fresh and dry weights. Individual plants were cut near the soil surface and weighed immediately (fresh weight). The plants were then placed into labeled brown paper bags and dried in a 70° C. oven for 72 hours. A dry weight was then obtained. The following calculation was performed on the collected data: Fresh weight at harvest, and dry weight at harvest for the peptide-treated plants were expressed as a % change relative to the ‘mock’ treated plants.

Sequence	Drought tolerance activity in corn, result in words (corn; corn foliar spray)	Dry Weight Increase (corn; foliar spray 0.2 μg/ml)	Fresh Weight Increase (corn; foliar spray 0.2 μg/ml)	Effectiveness Covered (% decline in TMV lesions vs UTC) [1]	Effectiveness Uncovered (% decline in TMV lesions vs UTC) [1]	% Change Dry Weight (soy; soy seed treatment 0.9 μg/seed)	% Change Fresh Weight (soy; soy seed treatment 0.9 μg/seed)	Dry Weight Increase (corn; foliar spray 2 μg/ml)	Fresh Weight Increase (corn; foliar spray 2 μg/ml)	% Change Dry Weight (soy; soy seed treatment 0.1 μg/seed)	% Change Fresh Weight (soy; soy seed treatment 0.1 μg/seed)
AGQTSGMSPMEQLMKIFADITQSLFGDQDG (P13-12 peptide) [Peptide P13-12]	affords activity	7.31* %	3.93* %	37.9%	44.1%	−0.37%	0.77%	–	–	–	–
LSGAGQTSGMSPMEQLMKIFADITQSLFGDQDG (P13-11 peptide) [Peptide P13-11]	–	4.91* %	3.81* %	73.1%	74.9* %	0.16%	3.42%	–	–	–	–
DDSLSGAGQTSGMSPMEQLMKIFADITQSLFGDQDG (P13-10 peptide) [Peptide P13-10]	–	–	–	92.4%	90.6* %	–	–	7.56* %	4.44%	−1.66%	1.01%
